Values after ≈ are worked out from the molar mass of the structure shown. Residues, ends and D or L forms follow the SMILES beside them.
Assays:
Format in all cases: functional
Escherichia coli [1] = experiment: Antibacterial activity against Escherichia coli incubated for 18 hrs by broth microdilution method
Staphylococcus aureus [2] = experiment: Antibacterial activity against methicillin resistant Staphylococcus aureus 75 incubated for 18 hrs by broth microdilution method
Escherichia coli [3] = experiment: Antibacterial activity against rifampicin resistant Escherichia coli incubated for 18 hrs by broth microdilution method
Staphylococcus aureus [4] = experiment: Antibacterial activity against Staphylococcus aureus S794 incubated for 18 hrs by broth microdilution method
Staphylococcus aureus [5] = experiment: Antibacterial activity against Staphylococcus aureus S125 incubated for 18 hrs by broth microdilution method
Staphylococcus aureus [6] = experiment: Antibacterial activity against methicillin resistant Staphylococcus aureus 113 incubated for 18 hrs by broth microdilution method
Staphylococcus aureus [7] = experiment: Antibacterial activity against methicillin resistant Staphylococcus aureus incubated for 18 hrs by broth microdilution method
Staphylococcus aureus [8] = experiment: Antibacterial activity against Staphylococcus aureus incubated for 18 hrs by broth microdilution method
Escherichia coli [9] = experiment: Antibacterial activity against kanamycin resistant Escherichia coli incubated for 18 hrs by broth microdilution method
Staphylococcus aureus [10] = experiment: Antibacterial activity against kanamycin resistant Staphylococcus aureus incubated for 18 hrs by broth microdilution method
Staphylococcus aureus [11] = experiment: Antibacterial activity against rifampicin resistant Staphylococcus aureus incubated for 18 hrs by broth microdilution method
Escherichia coli [12] = experiment: Antibacterial activity against Escherichia coli ATCC 25922 incubated for 18 hrs by broth microdilution method
Klebsiella pneumoniae = experiment: Antibacterial activity against Klebsiella pneumoniae ATCC 700603 incubated for 18 hrs by broth microdilution method
Pseudomonas aeruginosa = experiment: Antibacterial activity against Pseudomonas aeruginosa ATCC 27853 incubated for 18 hrs by broth microdilution method
Staphylococcus aureus [13] = experiment: Antibacterial activity against Staphylococcus aureus ATCC 25923 incubated for 18 hrs by broth microdilution method
[14] = system: Staphylococcus epidermidis; experiment: Antibacterial activity against Staphylococcus epidermidis ATCC 12228 incubated for 18 hrs by broth microdilution method
Bacillus subtilis = experiment: Antibacterial activity against Bacillus subtilis ATCC 23857 incubated for 18 hrs by broth microdilution method

GENTAMICIN
MIC (Escherichia coli [1]): 0.5 µM
MIC (Staphylococcus aureus [2]): 32 µM
MIC (Escherichia coli [3]): 0.5 µM
MIC (Staphylococcus aureus [4]): 32 µM
MIC (Staphylococcus aureus [5]): 8 µM
MIC (Staphylococcus aureus [6]): 0.5 µM
MIC (Staphylococcus aureus [7]): 16 µM
MIC (Staphylococcus aureus [8]): 0.5 µM
MIC (Escherichia coli [9]): 32 µM
MIC (Staphylococcus aureus [10]): 0.5 µM
MIC (Staphylococcus aureus [11]): 0.5 µM

CN[C@@H]1[C@H](O[C@H]2[C@H](O[C@H]3[C@H](O)[C@@H](O)[C@H](N=C(N)N)[C@@H](O)[C@@H]3N=C(N)N)O[C@@H](C)[C@]2(O)C=O)O[C@@H](CO)[C@H](O)[C@H]1O [STREPTOMYCIN]
MIC (Escherichia coli [1]): 4 µM (≈ 2.33 µg/mL)
MIC (Staphylococcus aureus [2]): 32 µM (≈ 18.6 µg/mL)
MIC (Escherichia coli [3]): 2 µM (≈ 1.16 µg/mL)
MIC (Staphylococcus aureus [4]): 128 µM (≈ 74.4 µg/mL)
MIC (Staphylococcus aureus [5]): 32 µM (≈ 18.6 µg/mL)
MIC (Staphylococcus aureus [6]): 64 µM (≈ 37.2 µg/mL)
MIC (Staphylococcus aureus [7]): 32 µM (≈ 18.6 µg/mL)
MIC (Staphylococcus aureus [8]): 0.5 µM (≈ 0.291 µg/mL)
MIC (Escherichia coli [9]): 64 µM (≈ 37.2 µg/mL)
MIC (Staphylococcus aureus [10]): 4 µM (≈ 2.33 µg/mL)
MIC (Staphylococcus aureus [11]): 2 µM (≈ 1.16 µg/mL)

CC[C@H](C)[C@H](N)C1=N[C@H](C(=O)N[C@@H](CC(C)C)C(=O)N[C@H](CCC(=O)O)C(=O)N[C@H](C(=O)N[C@H]2CCCCNC(=O)[C@H](CC(N)=O)NC(=O)[C@@H](CC(=O)O)NC(=O)[C@H](Cc3cnc[nH]3)NC(=O)[C@@H](Cc3ccccc3)NC(=O)[C@H]([C@@H](C)CC)NC(=O)[C@@H](CCCN)NC2=O)[C@@H](C)CC)CS1 [BACITRACIN] (HELM PEPTIDE1{[CC[C@H](C)[C@H](N)C1=N[C@H](C(=O)[*:2])CS1].L.[dE].I.K.[NCCC[C@@H](N[*:1])C(=O)[*:2]].I.[dF].H.[dD].N}$PEPTIDE1,PEPTIDE1,5:R3-11:R2$$$V2.0)
MIC (Escherichia coli [1]): 256 µM (≈ 364 µg/mL)
MIC (Staphylococcus aureus [2]): 0.5 µM (≈ 0.711 µg/mL)
MIC (Escherichia coli [3]): 256 µM (≈ 364 µg/mL)
MIC (Escherichia coli [12]): > 128 µM
MIC (Staphylococcus aureus [4]): 256 µM (≈ 364 µg/mL)
MIC (Staphylococcus aureus [5]): 8 µM (≈ 11.4 µg/mL)
MIC (Klebsiella pneumoniae): > 128 µM
MIC (Staphylococcus aureus [6]): 16 µM (≈ 22.8 µg/mL)
MIC (Staphylococcus aureus [7]): 0.5 µM (≈ 0.711 µg/mL)
MIC (Staphylococcus aureus [8]): 32 µM (≈ 45.5 µg/mL)
MIC (Escherichia coli [9]): 256 µM (≈ 364 µg/mL)
MIC (Pseudomonas aeruginosa): > 128 µM
MIC (Staphylococcus aureus [13]): 32 µM (≈ 45.5 µg/mL)
MIC [14]: 16 µM (≈ 22.8 µg/mL)
MIC (Staphylococcus aureus [10]): 16 µM (≈ 22.8 µg/mL)
MIC (Bacillus subtilis): > 128 µM
MIC (Staphylococcus aureus [11]): 256 µM (≈ 364 µg/mL)

CO/N=C(\C(=O)N[C@@H]1C(=O)N2C(C(=O)O)=C(COC(C)=O)CS[C@H]12)c1csc(N)n1 [CEFOTAXIME]
MIC (Escherichia coli [1]): 0.5 µM (≈ 0.228 µg/mL)
MIC (Staphylococcus aureus [2]): 256 µM (≈ 117 µg/mL)
MIC (Escherichia coli [3]): 0.5 µM (≈ 0.228 µg/mL)
MIC (Escherichia coli [12]): < 1 µM
MIC (Staphylococcus aureus [4]): 256 µM (≈ 117 µg/mL)
MIC (Staphylococcus aureus [5]): 8 µM (≈ 3.64 µg/mL)
MIC (Klebsiella pneumoniae): 4 µM (≈ 1.82 µg/mL)
MIC (Staphylococcus aureus [6]): 32 µM (≈ 14.6 µg/mL)
MIC (Staphylococcus aureus [7]): 256 µM (≈ 117 µg/mL)
MIC (Staphylococcus aureus [8]): 2 µM (≈ 0.911 µg/mL)
MIC (Escherichia coli [9]): 64 µM (≈ 29.2 µg/mL)
MIC (Pseudomonas aeruginosa): 8 µM (≈ 3.64 µg/mL)
MIC (Staphylococcus aureus [13]): 2 µM (≈ 0.911 µg/mL)
MIC [14]: < 1 µM
MIC (Staphylococcus aureus [10]): 0.5 µM (≈ 0.228 µg/mL)
MIC (Bacillus subtilis): 64 µM (≈ 29.2 µg/mL)
MIC (Staphylococcus aureus [11]): 0.5 µM (≈ 0.228 µg/mL)

C[C@@H](O)[C@H]1C(=O)N2C(C(=O)O)=C(S[C@@H]3CN[C@H](C(=O)N(C)C)C3)[C@H](C)[C@H]12 [MEROPENEM]
MIC (Escherichia coli [1]): 0.5 µM (≈ 0.192 µg/mL)
MIC (Staphylococcus aureus [2]): 128 µM (≈ 49.1 µg/mL)
MIC (Escherichia coli [3]): 0.5 µM (≈ 0.192 µg/mL)
MIC (Staphylococcus aureus [4]): 0.5 µM (≈ 0.192 µg/mL)
MIC (Staphylococcus aureus [5]): 0.5 µM (≈ 0.192 µg/mL)
MIC (Staphylococcus aureus [6]): 0.5 µM (≈ 0.192 µg/mL)
MIC (Staphylococcus aureus [7]): 32 µM (≈ 12.3 µg/mL)
MIC (Staphylococcus aureus [8]): 0.5 µM (≈ 0.192 µg/mL)
MIC (Escherichia coli [9]): 0.5 µM (≈ 0.192 µg/mL)
MIC (Staphylococcus aureus [10]): 0.5 µM (≈ 0.192 µg/mL)
MIC (Staphylococcus aureus [11]): 0.5 µM (≈ 0.192 µg/mL)

C[C@@H](O)[C@H]1C(=O)N2C(C(=O)O)=C(SCCNC=N)C[C@H]12 [IMIPENEM ANHYDROUS]
MIC (Escherichia coli [1]): 0.5 µM (≈ 0.15 µg/mL)
MIC (Staphylococcus aureus [2]): 256 µM (≈ 76.6 µg/mL)
MIC (Escherichia coli [3]): 0.5 µM (≈ 0.15 µg/mL)
MIC (Staphylococcus aureus [4]): 0.5 µM (≈ 0.15 µg/mL)
MIC (Staphylococcus aureus [5]): 0.5 µM (≈ 0.15 µg/mL)
MIC (Staphylococcus aureus [6]): 0.5 µM (≈ 0.15 µg/mL)
MIC (Staphylococcus aureus [7]): 32 µM (≈ 9.58 µg/mL)
MIC (Staphylococcus aureus [8]): 0.5 µM (≈ 0.15 µg/mL)
MIC (Escherichia coli [9]): 8 µM (≈ 2.39 µg/mL)
MIC (Staphylococcus aureus [10]): 0.5 µM (≈ 0.15 µg/mL)
MIC (Staphylococcus aureus [11]): 0.5 µM (≈ 0.15 µg/mL)

CO[C@H]1/C=C/O[C@@]2(C)Oc3c(C)c(O)c4c(O)c(c(/C=N/N5CCN(C)CC5)c(O)c4c3C2=O)NC(=O)/C(C)=C\C=C\[C@H](C)[C@H](O)[C@@H](C)[C@@H](O)[C@@H](C)[C@H](OC(C)=O)[C@@H]1C [RIFAMPIN]
MIC (Escherichia coli [1]): 16 µM (≈ 13.2 µg/mL)
MIC (Staphylococcus aureus [2]): 256 µM (≈ 211 µg/mL)
MIC (Escherichia coli [3]): 256 µM (≈ 211 µg/mL)
MIC (Escherichia coli [12]): 16 µM (≈ 13.2 µg/mL)
MIC (Staphylococcus aureus [4]): 32 µM (≈ 26.3 µg/mL)
MIC (Staphylococcus aureus [5]): 0.5 µM (≈ 0.411 µg/mL)
MIC (Klebsiella pneumoniae): 64 µM (≈ 52.7 µg/mL)
MIC (Staphylococcus aureus [6]): 0.5 µM (≈ 0.411 µg/mL)
MIC (Staphylococcus aureus [7]): 256 µM (≈ 211 µg/mL)
MIC (Staphylococcus aureus [8]): 0.5 µM (≈ 0.411 µg/mL)
MIC (Escherichia coli [9]): 32 µM (≈ 26.3 µg/mL)
MIC (Pseudomonas aeruginosa): 32 µM (≈ 26.3 µg/mL)
MIC (Staphylococcus aureus [13]): < 1 µM
MIC [14]: < 1 µM
MIC (Staphylococcus aureus [10]): 4 µM (≈ 3.29 µg/mL)
MIC (Bacillus subtilis): < 1 µM
MIC (Staphylococcus aureus [11]): 64 µM (≈ 52.7 µg/mL)

Source: ChEMBL document CHEMBL5543109, “Novel β-Hairpin Antimicrobial Peptide Containing the β-Turn Sequence of -NG- and the Tryptophan Zippers Facilitate Self-Assembly into Nanofibers, Exhibiting Excellent Antimicrobial Performance” (J Med Chem, 2024)
